Literature values, collected in patent US20120282652A1, “PREPARATION OF PEPTIDE MIXTURES BY PROTEASE CATALYSIS DESIGNED TO PROVIDE USEFUL BIOLOGICAL AND PHYSICAL PROPERTIES” (priority 2011, published 2012).

Columns and labels:
[1] = test system: S. aureus, E. coli, and P. aeruginosa; conditions: peptide synthesized by traditional chemical methods
[2] = Cheng et al.

## LKLLKKLLKKLKKLLKKL [amphipathic model peptide synthesized by traditional chemical methods]
[1]
  antimicrobial activity compared with diblock KKKKKKKKKLLLLLLLLL or alternating KLKLKLKLKLKLKLKLKL: better antimicrobial activity

## [γ-Glu-Cys]2-Gly
Absorbance at 240 nm, Mehra
  Cd(II) at which binding saturated: 0.5 equivalents
Absorption at 250 nm, Kobayashi and Yoshimura
  Cd(II)/peptide ratio up to which absorption intensity is enhanced: ≤ 1.4

## [γ-Glu-Cys]4-Gly [[(γ-EC)4]-Gly]
[2]
  order of binding efficiency of the metals: Cd>Zn>Ni>Co
